Measured values from patent US9138439B2, “Methods and compositions for modulating P300/CBP activity” (The Wistar Institute, priority 2007, dated 2015).
Numbering of substitutions follows the chain as printed. Non-standard residues stand in square brackets, D forms with d. No end group written: not given here. Cit = NC(=O)NCCC[C@H](N)C(=O)O

What was measured:
wild-type p300 HAT = biological target: T1, wild-type p300 HAT (Homo sapiens, UniProt Q09472, DEL1523-1554/M1652G); experiment: HAT assay, steady state kinetic parameters of H4 tail peptide analog substrates, wild-type p300 HAT; assay type: biochemical; conditions: peptide as substrate of wild-type p300 HAT
T1 construct: linking the natural N- and C-termini (residues 1287 and 1666) of the HAT domain; made in house
T1 sequence (Q09472 with tags, fused parts or gaps DEL1523-1554/M1652G): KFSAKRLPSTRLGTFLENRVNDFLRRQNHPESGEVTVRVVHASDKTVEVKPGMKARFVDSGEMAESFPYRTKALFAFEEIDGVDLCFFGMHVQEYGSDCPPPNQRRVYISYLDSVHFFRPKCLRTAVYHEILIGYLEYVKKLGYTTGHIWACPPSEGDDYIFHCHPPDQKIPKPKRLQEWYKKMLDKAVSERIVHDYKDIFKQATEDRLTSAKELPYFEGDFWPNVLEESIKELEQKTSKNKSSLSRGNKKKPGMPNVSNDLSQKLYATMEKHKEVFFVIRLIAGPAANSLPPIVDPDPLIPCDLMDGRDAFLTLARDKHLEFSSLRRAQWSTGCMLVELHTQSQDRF
Procedure: (§1) HAT Assays. HAT activity was determined by either a rapid and nonradioactive HAT assay that measures the production of CoASH by its facile reaction with DTNB, or by a radioactive assay (Lau, et al. (2000) supra; Thompson, et al. (2000) supra). […] For the radioactive assay, the concentration of [^14C]acetyl-CoA was fixed at 20 μM when measuring the steady-state kinetic parameters for peptide substrates.
(§2) To test the influence of electrostatic interactions on substrate sequence selection, the steady state kinetic parameters for several synthetic H4 tail peptide analogs was determined (listed in Table 5). In H4-15, there are two other basic residues (Lys5 and Lys12) near the target Lys8. It has previously been shown that either one of the nearby Lys (or Arg replacements) is sufficient to permit efficient acetylation by full-length p300 (Thompson, et al. (2001) supra). Here, the effects of replacing Lys5 and Lys12 with Ala, the neutral residue hydrogen bonding citrulline, or Asp were compared for wild-type and mutant p300 HAT as indicated in Table 5. Analysis of the single lysine substrate, analogous to the Lys-CoA component, which contains both amino and carboxyl groups derivatized as amides (Table 5), was also conducted. Km of these substrates were generally too high to be measured (>1000 μM) under the experimental conditions, highlighting the important role of the nearby positively charged residues for substrate interaction. As shown Table 5, the 22-fold V/K difference between wild-type p300 HAT protein and the D1625R/D1628R mutant for H4-15 substrate dropped to 6-fold when using Ac-Lys-NH2 as substrate. […] Consistent with this idea, H4-12^K5A/K12A or H4-12^K5Cit/K12A which lack proximal basic residues but contain neutral hydrogen bonding residues show kinetic behavior similar to that of Ac-Lys-NH2 (Table 5).

D1625R/D1628R p300 HAT = biological target: T2, D1625R/D1628R p300 HAT (Homo sapiens, UniProt Q09472, D1625R/D1628R/DEL1523-1554/M1652G); experiment: HAT assay, steady state kinetic parameters of H4 tail peptide analog substrates, D1625R/D1628R p300 HAT mutant; assay type: biochemical; conditions: for V/K(M^−1s^−1) for D1625R/D1628R: peptide as substrate of D1625R/D1628R p300 HAT mutant; for V/K difference between wild-type p300 HAT protein and the D1625R/D1628R mutant: ratio wild-type versus mutant for the given substrate
T2 construct: linking the natural N- and C-termini (residues 1287 and 1666) of the HAT domain; made in house
T2 sequence (Q09472 with tags, fused parts or gaps DEL1523-1554/D1625R/D1628R/M1652G): T1 sequence (Q09472 with tags, fused parts or gaps DEL1523-1554/M1652G) with D307R, D310R
Procedure: as §1, §2

p300/CBP HAT [1] = experiment: coupled spectrophotometric assay that measures CoASH production in real-time; assay type: biochemical, human; conditions: inhibitor concentration not given
Description: (§3) In accordance with the methods of the present invention, compounds were screened to identify modulators of p300/CBP HAT activity.

p300/CBP HAT [2] = experiment: direct radioactive assay measuring 14C-incorporation from acetyl-CoA into H4 tail peptide; assay type: biochemical, human; conditions: inhibitor concentration not given
Procedure: as §3, §1

AANAT = experiment: specificity test against other acetyltransferases: AANAT; assay type: biochemical
Description: (§4) The three small molecule p300 HAT inhibitors (7, 17.2 and 17.3) identified using virtual library screening provided new leads for further development. […] From the docking model of 7 to p300 HAT (FIG. 11), important hydrogen bonding roles are indicated for the side-chains of Arg1410, Thr1411, Trp1466 (all interacting with the inhibitor carboxylate) as well as the side-chain of Tyr1467 (hydrogen bonding to the nitro group). While Arg1410 and Tyr1467 are critical for CoA binding and/or catalysis, mutation of Trp1466 is well-tolerated. To explore the specificity of the small molecule HAT inhibitors, these compounds are tested against other acetyltransferases (PCAF, AANAT, RTT109, EsaI), which assists in the prioritization of candidates for pharmacologic applications.

PCAF = PCAF (Homo sapiens, UniProt Q92831); experiment: specificity test against other acetyltransferases: PCAF; assay type: biochemical
Description: as §4

p300/CBP = p300/CBP (Homo sapiens, UniProt Q09472); conditions: Lau, et al. (2000); cited from earlier work
Chain of p300/CBP (Q09472 whole entry): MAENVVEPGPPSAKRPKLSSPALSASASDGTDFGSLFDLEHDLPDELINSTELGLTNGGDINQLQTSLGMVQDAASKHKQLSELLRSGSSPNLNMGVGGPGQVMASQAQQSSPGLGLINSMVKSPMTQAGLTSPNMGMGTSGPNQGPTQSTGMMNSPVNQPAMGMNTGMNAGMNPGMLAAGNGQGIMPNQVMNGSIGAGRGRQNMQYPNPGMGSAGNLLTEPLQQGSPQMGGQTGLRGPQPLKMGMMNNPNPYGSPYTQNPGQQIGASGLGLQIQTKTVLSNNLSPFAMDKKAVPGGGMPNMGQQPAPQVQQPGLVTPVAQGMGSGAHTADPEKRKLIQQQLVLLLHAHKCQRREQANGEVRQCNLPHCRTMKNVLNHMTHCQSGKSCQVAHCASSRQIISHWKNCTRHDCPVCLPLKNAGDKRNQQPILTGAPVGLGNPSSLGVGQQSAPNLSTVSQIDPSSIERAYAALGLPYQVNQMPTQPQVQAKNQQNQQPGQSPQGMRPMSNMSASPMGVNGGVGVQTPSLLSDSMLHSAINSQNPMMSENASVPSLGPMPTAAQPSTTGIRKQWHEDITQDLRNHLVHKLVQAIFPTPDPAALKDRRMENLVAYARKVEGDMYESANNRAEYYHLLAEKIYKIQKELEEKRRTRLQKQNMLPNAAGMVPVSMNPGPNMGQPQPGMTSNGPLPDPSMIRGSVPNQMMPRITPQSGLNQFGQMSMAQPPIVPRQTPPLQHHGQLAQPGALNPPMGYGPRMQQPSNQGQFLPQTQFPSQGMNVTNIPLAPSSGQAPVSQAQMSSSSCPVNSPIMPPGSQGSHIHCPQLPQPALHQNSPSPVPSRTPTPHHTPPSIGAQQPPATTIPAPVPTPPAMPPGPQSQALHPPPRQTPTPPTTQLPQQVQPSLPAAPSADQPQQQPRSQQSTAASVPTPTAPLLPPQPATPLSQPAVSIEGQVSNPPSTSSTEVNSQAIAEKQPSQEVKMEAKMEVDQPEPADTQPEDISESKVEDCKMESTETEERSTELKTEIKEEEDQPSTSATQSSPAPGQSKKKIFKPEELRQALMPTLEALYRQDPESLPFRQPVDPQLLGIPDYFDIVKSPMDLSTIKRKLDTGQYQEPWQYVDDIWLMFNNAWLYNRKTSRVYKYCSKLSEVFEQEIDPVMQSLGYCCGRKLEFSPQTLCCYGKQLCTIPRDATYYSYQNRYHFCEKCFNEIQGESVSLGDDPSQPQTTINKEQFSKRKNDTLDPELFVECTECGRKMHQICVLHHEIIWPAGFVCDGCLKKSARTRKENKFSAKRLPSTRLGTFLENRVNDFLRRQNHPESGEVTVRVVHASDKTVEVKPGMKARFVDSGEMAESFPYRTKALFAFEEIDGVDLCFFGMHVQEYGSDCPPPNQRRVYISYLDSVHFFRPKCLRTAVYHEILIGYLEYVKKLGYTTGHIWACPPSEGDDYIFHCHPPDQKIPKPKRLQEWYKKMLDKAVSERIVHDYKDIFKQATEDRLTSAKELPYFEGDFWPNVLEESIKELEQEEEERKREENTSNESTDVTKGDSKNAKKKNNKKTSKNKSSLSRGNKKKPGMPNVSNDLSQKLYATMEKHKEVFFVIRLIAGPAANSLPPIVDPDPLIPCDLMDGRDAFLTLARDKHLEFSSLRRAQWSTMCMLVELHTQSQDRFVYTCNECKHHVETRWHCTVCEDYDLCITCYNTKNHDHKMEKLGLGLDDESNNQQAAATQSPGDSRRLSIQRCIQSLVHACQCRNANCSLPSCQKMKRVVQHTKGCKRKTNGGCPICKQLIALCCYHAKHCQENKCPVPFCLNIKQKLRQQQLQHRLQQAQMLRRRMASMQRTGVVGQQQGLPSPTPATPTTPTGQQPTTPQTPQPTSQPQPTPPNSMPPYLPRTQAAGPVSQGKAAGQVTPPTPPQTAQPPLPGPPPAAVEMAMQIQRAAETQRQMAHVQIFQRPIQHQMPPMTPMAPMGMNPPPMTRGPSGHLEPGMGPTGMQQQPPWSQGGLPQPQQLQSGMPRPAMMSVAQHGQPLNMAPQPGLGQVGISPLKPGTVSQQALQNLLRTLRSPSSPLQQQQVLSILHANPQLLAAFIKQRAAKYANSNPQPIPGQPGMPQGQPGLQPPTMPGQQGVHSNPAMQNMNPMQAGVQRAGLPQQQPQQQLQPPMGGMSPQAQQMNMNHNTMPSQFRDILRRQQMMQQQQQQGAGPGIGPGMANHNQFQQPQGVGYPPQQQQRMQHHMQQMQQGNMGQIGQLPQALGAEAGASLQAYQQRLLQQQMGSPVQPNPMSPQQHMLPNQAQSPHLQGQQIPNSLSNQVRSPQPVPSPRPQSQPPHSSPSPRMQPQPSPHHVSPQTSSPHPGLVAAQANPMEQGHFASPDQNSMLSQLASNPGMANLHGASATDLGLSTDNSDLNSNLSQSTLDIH

Chain of PCAF (Q92831 whole entry, species assumed): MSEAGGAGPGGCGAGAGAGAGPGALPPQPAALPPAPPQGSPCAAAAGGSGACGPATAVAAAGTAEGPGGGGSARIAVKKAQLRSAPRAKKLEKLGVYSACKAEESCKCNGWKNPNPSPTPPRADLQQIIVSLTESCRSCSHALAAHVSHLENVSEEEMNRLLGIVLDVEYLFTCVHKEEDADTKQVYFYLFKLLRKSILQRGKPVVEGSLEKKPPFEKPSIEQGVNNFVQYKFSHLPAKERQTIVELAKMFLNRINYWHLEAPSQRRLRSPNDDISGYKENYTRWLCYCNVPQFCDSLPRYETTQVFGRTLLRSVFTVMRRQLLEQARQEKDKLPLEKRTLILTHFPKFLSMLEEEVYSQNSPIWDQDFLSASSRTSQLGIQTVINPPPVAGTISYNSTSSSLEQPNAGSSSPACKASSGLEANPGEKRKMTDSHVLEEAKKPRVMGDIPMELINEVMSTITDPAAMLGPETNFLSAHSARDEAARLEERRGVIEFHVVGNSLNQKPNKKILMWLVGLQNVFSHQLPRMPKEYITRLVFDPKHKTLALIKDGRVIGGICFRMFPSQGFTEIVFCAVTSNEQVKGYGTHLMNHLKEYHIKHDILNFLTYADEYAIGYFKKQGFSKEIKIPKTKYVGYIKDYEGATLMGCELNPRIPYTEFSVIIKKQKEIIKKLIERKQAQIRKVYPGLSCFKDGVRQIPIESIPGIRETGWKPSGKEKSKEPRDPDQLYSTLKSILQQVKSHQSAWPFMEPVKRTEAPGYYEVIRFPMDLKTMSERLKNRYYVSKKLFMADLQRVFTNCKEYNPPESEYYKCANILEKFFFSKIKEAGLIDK

melting point [°C] | Compound | % Inhibition Coupled (p300/CBP HAT [1]) [%] | % Inhibition Direct (p300/CBP HAT [2]) [%] | other results
306 to 309 | CC1=NN(c2ccc(C(=O)O)cc2)C(=O)/C1=C\c1ccc(-c2ccccc2)o1 [Compound 6a] | 33.7 | 71.5 | –
338 to 341 | CC1=NN(c2ccc(C(=O)O)cc2)C(=O)/C1=C\c1ccc(-c2ccc([N+](=O)[O-])cc2)o1 [Compound 6b] | 35.6 | 33.8 | –
249 to 251 | CCOC(=O)c1ccccc1-c1ccc(/C=C2\C(=O)N(c3ccc(C(=O)O)cc3)N=C2C)o1 [Compound 6c] | 38.1 | 8.3 | –
192 to 194 | CCOC(=O)c1ccc(N2N=C(C)/C(=C/c3ccc(-c4cc(C)c(C)cc4[N+](=O)[O-])o3)C2=O)cc1 [Compound 6d] | 0 | – | –
260 to 262 | CC1=NN(c2cccc(C(=O)O)c2)C(=O)/C1=C\c1ccc(-c2cc(C)c(C)cc2[N+](=O)[O-])o1 [Compound 6e] | 63.4 | 96.4 | –
210 to 213 | CC1=NN(c2ccc(S(=O)(=O)O)cc2)C(=O)/C1=C\c1ccc(-c2cc(C)c(C)cc2[N+](=O)[O-])o1 [Compound 6f] | 57.4 | 97.2 | –
273 to 275 | CC1=NN(c2ccc(C(N)=O)cc2)C(=O)/C1=C\c1ccc(-c2cc(C)c(C)cc2[N+](=O)[O-])o1 [Compound 6h] | 40.6 | 94.7 | –
220 to 223 | CC1=NN(c2ccc(Cl)cc2)C(=O)/C1=C\c1ccc(-c2cc(C)c(C)cc2[N+](=O)[O-])o1 [Compound 6i] | 13.9 | – | –

More lines, now with the values behind:

Compound | melting point [°C] | % Inhibition Coupled (p300/CBP HAT [1]) [%] | % Inhibition Direct (p300/CBP HAT [2]) [%] | other results
CC(=O)NC(CCCCN)C(N)=O (stereo not drawn) [Ac-Lys-NH2, CH3CO—NH-Lys-CONH2] | – | – | – | V/K(M^−1s^−1) for W.T. (wild-type p300 HAT): 1843 ± 50 M⁻¹ s⁻¹; V/K(M^−1s^−1) for D1625R/D1628R (D1625R/D1628R p300 HAT): 326 ± 10 M⁻¹ s⁻¹; V/K difference between wild-type p300 HAT protein and the D1625R/D1628R mutant (D1625R/D1628R p300 HAT): 6 fold
CC1=NN(c2ccc(C(=O)O)cc2)C(=O)C1 [CM-26] | – | 16.3 | – | –
CC1=NN(c2ccc(C(=O)O)cc2)C(=O)/C1=C\c1ccc(-c2cc(C)c(C)cc2[N+](=O)[O-])o1 [Compound 7] | – | 85.9 | – | % inhibition of AANAT (AANAT): 4.8%; % inhibition of PCAF (PCAF): 0%
CC1=NN(CCCCC(=O)O)C(=O)/C1=C\c1ccc(-c2cc(C)c(C)cc2[N+](=O)[O-])o1 [Compound 9] | – | 92.6 | 55.8 | –
CC1=NN(c2ccc(C(=O)O)cc2)C(=O)/C1=C\c1ccc(-c2cc(C)ccc2[N+](=O)[O-])o1 [Compound 40174] | – | – | 79.5 | –
CC1=NN(c2ccc(C(=O)O)cc2)C(=O)/C1=C\c1ccc(-c2ccccc2F)o1 [Compound 6328730] | – | 90.5 | 67.9 | –
CC(=O)N[C@@H](CCCCNC(=O)CSCCNC(=O)CCNC(=O)[C@H](O)C(C)(C)COP(=O)(O)OP(=O)(O)OC[C@H]1O[C@@H](n2cnc3c(N)ncnc32)[C@H](O)[C@@H]1OP(=O)(O)O)C(N)=O [Lys-CoA] | – | – | – | inhibition of p300/CBP (p300/CBP): powerful and selective inhibitor
GRGDGGKGLGDGGAK [H4-15(K5D/K12D)] | – | – | – | V/K(M^−1s^−1) for W.T. (wild-type p300 HAT): 636 ± 0 M⁻¹ s⁻¹; V/K(M^−1s^−1) for D1625R/D1628R (D1625R/D1628R p300 HAT): 422 ± 20 M⁻¹ s⁻¹; V/K difference between wild-type p300 HAT protein and the D1625R/D1628R mutant (D1625R/D1628R p300 HAT): ≤ 2 fold
GRGKGGKGLGKGGAK (Ac-GRGKGGKGLGKGGAK) [Compound H4-15] | – | – | – | V/K(M^−1s^−1) for W.T. (wild-type p300 HAT): 25000 ± 1643 M⁻¹ s⁻¹; V/K(M^−1s^−1) for D1625R/D1628R (D1625R/D1628R p300 HAT): 1162 ± 60 M⁻¹ s⁻¹; V/K difference between wild-type p300 HAT protein and the D1625R/D1628R mutant (D1625R/D1628R p300 HAT): 22 fold
RGAGGKGLGAGA [H4-12(K5A/K12A)] | – | – | – | V/K(M^−1s^−1) for W.T. (wild-type p300 HAT): 3824 ± 180 M⁻¹ s⁻¹; V/K(M^−1s^−1) for D1625R/D1628R (D1625R/D1628R p300 HAT): 515 ± 15 M⁻¹ s⁻¹
RGXGGKGLGAGA (RG[Cit]GGKGLGAGA) [H4-12(K5X/K12A)] | – | – | – | V/K(M^−1s^−1) for W.T. (wild-type p300 HAT): 5247 ± 60 M⁻¹ s⁻¹; V/K(M^−1s^−1) for D1625R/D1628R (D1625R/D1628R p300 HAT): 738 ± 20 M⁻¹ s⁻¹
